This note sets out measurements from patent US6319929A, “Suksdorfin analogs, compositions thereof, and methods for making and using thereof” (priority 1998, dated 2001).

By EC50 is commonly meant the concentration that produces a half-maximal response. The IC50 is the concentration that inhibits the measured activity by half.

Where “and” joins values, the source holds several entries; their conditions need not be identical. Equal values may be shown once. Entries after “also recorded” stand apart in the source; their conditions may differ. Read-outs that look alike come from different tables or passages of the source.

In experiment [1] the test system is HIV-1 replication in H9 cells. Nature of the experiment: Combination study of suksdorfin with AZT, ddI and ddC: HIV-1 replication in acutely infected H9 cells. It counts as cell-based, HIV-1 (IIIB). On the procedure:
HIV Growth Inhibition Assay: The T cell line, H9, and the promonocytic cell line, U937, were maintained separately in continuous culture with complete medium (RPMI 1640 and […] fetal calf serum (FCS) at 5% CO2 and 37° C. Cell lines were used in experiments only when in log phase of growth; whereas, uninfected peripheral blood mononuclear cells (PBMCs) were first stimulated with PHA (1 μg/ml) for 3 days. All cell targets were incubated with HIV-1 (IIIB isolate, TCID50 10 ^4 IU/mi, at a multiplicity of infection of 0.1-0.01 IU/cell) for 1 hour at 37° C. and 5% CO2. The cell lines and PBMCs were washed thoroughly to remove unabsorbed virions and resuspended at 4×10^5 cells/ml in complete medium or complete medium with 10% v/v interleukin […] IL-2, respectively. Aliquots ( ml) were placed in wells of 24-well culture plates containing an equal volume of test compound (diluted in the appropriate culture medium). After incubation for 4 days at 37° C., cell density of uninfected cultures was determined by counting cells in a Coulter counter to assess toxicity of the test compound. A p24 antigen ELISA assay was used to determine the level of virus released in the medium of the HIV-infected cultures. The p24 antigen assay uses a HIV-1 anti-p24 specific monoclonal antibody as the capture antibody coated-on 96-well plates. Following a sample incubation period, rabbit serum containing antibodies for HIV-1 p24 is used to tag any p24 "captured" onto the microtiter well surface. […] The cut-off for the p24 ELISA assay is 12. pg/ml. P24 in the culture medium was quantitated against a standard curve containing known amounts of p24. […] Both the EC50 and IC50 values were calculated by plotting drug concentration versus percent inhibition, and then identifying a 50% inhibition value from the graph.
Combination Study: The experimental design is identical to the growth inhibition assay except that various concentrations of AZT, ddI or ddC were also added to cultures of acutely HIV-1 infected H9 cells that either have or have no received different concentrations of suksdorfin. The concentrations of AZT, ddI and ddC were 5 ten-fold dilutions starting at 1 μg/ml. [drawing 104] [drawing 105]

Experiment [2] relates to HIV-1 replication in fresh monocytes. Nature of the experiment: HIV-1 infection of fresh monocytes obtained by adherence (p24). It counts as cell-based. The settings on record: for inhibition at 0.032 µg/mL / inhibition at 0.16 µg/mL / inhibition at 0.8 µg/mL / inhibition at 4 µg/mL / inhibition at 20 µg/mL: Human immunodeficiency virus 1, Monocyte, read-out: % suppression. The text has this:
Results (Table 12) from adding Suksdorfin to fresh monocytes infected with HIV-1.
The monocytes which were used for this experiment were obtained by adherence and not by elutriation; therefore, this cell population is not as pure as what was used for the 16 monocyte data above.

Experiment [3] deals with HIV-1 replication in PBMCs. Kind of experiment: HIV-1 replication in acutely infected PBMCs. The settings on record: for EC50: Human immunodeficiency virus 1, PBMC, PBMCs; for suppression of acute HIV-1 replication in PBMCs (in words): fresh PBMCs. It counts as cell-based, HIV-1 (IIIB). The procedure:
Suksdorf in was tested on peripheral blood mononuclear cells (PBMCS) which were stimulated for 3 days with PHA (1 .parallel.g/ml). The cells were collected and then infected with the 20X stock HIV-1 (IIIB). This is the same virus that is used in the drug screening assay. PBMCs were used for the following reasons: (1) It is another type of T cell infection. (2) PMBCs are freshly isolated cells not a cell line as are H9 cells. (3) We need to know if the effects of suksdorfin were limited to only an acute HIV-1 infection of a T cell line such as H9 cells. After the cells were infected with HIV-1, the cells were washed and then placed in medium with the cytokine, interleukin 2 (IL-2). IL-2 is needed to keep the cells activated which is necessary also for virus replication.
As part of efforts to biologically characterize 16 the monocytic cell line, U937 and peripheral blood mononuclear cells (PBMCs) were separately infected with HIV-1 and then had various concentrations of the analog added for 4 days of culture.
HIV Growth Inhibition Assay: The T cell line, H9, and the promonocytic cell line, U937, were maintained separately in continuous culture with complete medium (RPMI 1640 and […] fetal calf serum (FCS) at 5% CO2 and 37° C. Cell lines were used in experiments only when in log phase of growth; whereas, uninfected peripheral blood mononuclear cells (PBMCs) were first stimulated with PHA (1 μg/ml) for 3 days. All cell targets were incubated with HIV-1 (IIIB isolate, TCID50 10 ^4 IU/mi, at a multiplicity of infection of 0.1-0.01 IU/cell) for 1 hour at 37° C. and 5% CO2. The cell lines and PBMCs were washed thoroughly to remove unabsorbed virions and resuspended at 4×10^5 cells/ml in complete medium or complete medium with 10% v/v interleukin […] IL-2, respectively. Aliquots ( ml) were placed in wells of 24-well culture plates containing an equal volume of test compound (diluted in the appropriate culture medium). After incubation for 4 days at 37° C., cell density of uninfected cultures was determined by counting cells in a Coulter counter to assess toxicity of the test compound. A p24 antigen ELISA assay was used to determine the level of virus released in the medium of the HIV-infected cultures. The p24 antigen assay uses a HIV-1 anti-p24 specific monoclonal antibody as the capture antibody coated-on 96-well plates. Following a sample incubation period, rabbit serum containing antibodies for HIV-1 p24 is used to tag any p24 "captured" onto the microtiter well surface. Peroxidase conjugated goat anti-rabbit serum is then used to tag HIV-1 p24 specific rabbit antibodies which have complexed with captured p24. […] The cut-off for the p24 ELISA assay is 12. pg/ml. P24 in the culture medium was quantitated against a standard curve containing known amounts of p24. The effective (EC50) and inhibitory (IC50) concentrations (for anti-HIV activity and cytotoxicity, respectively) were determined graphically. Both the EC50 and IC50 values were calculated by plotting drug concentration versus percent inhibition, and then identifying a 50% inhibition value from the graph.

As to `Cc1cn([C@H]2C[C@H](N=[N+]=[N-])[C@@H](CO)O2)c(=O)[nH]c1=O` [AZT, azidothymidine, reference compound], the EC50 in experiment [1] (Human immunodeficiency virus 1, H9) came out at 0.04 µg/mL. In experiment [1] (Human immunodeficiency virus 1, H9, read-out: IC50 (μM)^b), the IC50 stood at 0.04 µg/mL. Besides, the “Therapeutic Index” value in experiment [1] (Table 5, combinations with 4 μg/ml suksdorfin) is reported as over 25; in experiment [1] (Table 16, combinations with 4 μg/ml suksdorfin), over 25. Also, the “decrease of EC50 in presence of suksdorfin” value in experiment [1] (with 4 μg/ml suksdorfin, H9) was 400 fold. The “increase of TI value in presence of suksdorfin” value in experiment [1] (with 4 μg/ml suksdorfin, H9) is recorded as 400 fold. Besides, the p24 in experiment [2] (Day 6, 0.008 μg/ml) is reported as 42,004 pg/ml; in experiment [2] (Day 6, 0.04 μg/ml), 23,234 pg/ml; in experiment [2] (Day 6, 0.2 μg/ml) it was 34,360 pg/ml; in experiment [2] (Day 6, 1 μg/ml) it was 8,705 pg/ml; in experiment [2] (Day 6, 5 μg/ml), 13,542 pg/ml; in experiment [2] (Day 12, 0.008 μg/ml) it was 70,380 pg/ml. Moreover, the p24 in experiment [2] (Day 12, 0.04 μg/ml) is recorded as 17,144 pg/ml; in experiment [2] (Day 12, 0.2 μg/ml) it was 32,778 pg/ml; in experiment [2] (Day 12, 1 μg/ml), 5,354 pg/ml; in experiment [2] (Day 12, 5 μg/ml), 10,170 pg/ml; in experiment [2] (Day 18, 0.008 μg/ml) it was 75,428 pg/ml; in experiment [2] (Day 18, 0.04 μg/ml) it was 22,993 pg/ml. Besides, the p24 was 31,759 pg/ml in experiment [2] (Day 18, 0.2 μg/ml); 6,830 pg/ml in experiment [2] (Day 18, 1 μg/ml); 12,330 pg/ml in experiment [2] (Day 18, 5 μg/ml).

Consider `CC1(C)Oc2ccc3ccc(=O)oc3c2[C@@H](OC(=O)[C@@]23CC[C@@](C)(C(=O)O2)C3(C)C)[C@H]1OC(=O)[C@@]12CC[C@@](C)(C(=O)O1)C2(C)C` [Compound 16, 3',4'-Di-O-(-)-Camphanoyl-(+)-cis-Khellactone], for which, in experiment [3], the EC50 was 0.018 µg/mL and 29 nM; the “suppression of acute HIV-1 replication in PBMCs (in words)” value is on record as “suppression detected”.

Regarding `CC(=O)O[C@@H]1[C@H](OC(=O)CC(C)C)c2c(ccc3ccc(=O)oc23)OC1(C)C` [Suksdorfin, suksdorfin], the EC50 in experiment [3] was 3.9 µM; in experiment [3] (Table 6), 1.5 µg/mL; in experiment [1] (Human immunodeficiency virus 1, H9, Table 5, combinations with 4 μg/ml suksdorfin, read-out: EC50), 2.8 µg/mL; in experiment [1] (Human immunodeficiency virus 1, H9, later value, read-out: EC50 (value after increase)), 1.5 to 2.8 µg/mL. Further, the “suppression of acute HIV-1 replication in PBMCs (in words)” value in experiment [3] is on record as “can suppress an acute HIV-1 replication”. The “synergy with AZT, ddI and ddC” value in experiment [1] (H9) was “act synergistically with AZT, ddI and ddC”; in experiment [1] (H9, listed as 1) it was “potentiate the anti-HIV effects of three nucleosides; also recorded: synergistic effect against HIV replication”. The IC50 in experiment [1] (Human immunodeficiency virus 1, H9, Table 16, concentration which inhibits viral replication by 50%, combinations with 4 μg/ml suksdorfin, read-out: IC50 (μM)^b) was found to be 2.8 µg/mL. Also, the inhibition at 4 µg/mL in experiment [1] (Human immunodeficiency virus 1, 4 μg/ml suksdorfin, H9) was 64%; in experiment [2] (144 h, Day 6, 4 μg/ml) it was 18%; in experiment [2] (288 h, Day 12, 4 μg/ml), 67%; in experiment [2] (432 h, Day 18, 4 μg/ml) it was 0%. Moreover, the p24 in experiment [2] (Day 6, 0.032 μg/ml) is 64,614 pg/ml; in experiment [2] (Day 6, 0.16 μg/ml), 70,195 pg/ml; in experiment [2] (Day 6, 0.8 μg/ml), 53,043 pg/ml; in experiment [2] (Day 6, 4 μg/ml) it was 48,748 pg/ml; in experiment [2] (Day 6, 20 μg/ml) it was 16,712 pg/ml; in experiment [2] (Day 12, 0.032 μg/ml) it was 173,998 pg/ml. The p24 is 203,633 pg/ml in experiment [2] (Day 12, 0.16 μg/ml); 163,656 pg/ml in experiment [2] (Day 12, 0.8 μg/ml); 89,467 pg/ml in experiment [2] (Day 12, 4 μg/ml); 25,567 pg/ml in experiment [2] (Day 12, 20 μg/ml); 105,882 pg/ml in experiment [2] (Day 18, 0.032 μg/ml); 125,440 pg/ml in experiment [2] (Day 18, 0.16 μg/ml). In addition, the p24 is recorded as 130,970 pg/ml in experiment [2] (Day 18, 0.8 μg/ml); 103,834 pg/ml in experiment [2] (Day 18, 4 μg/ml); 23,506 pg/ml in experiment [2] (Day 18, 20 μg/ml). The inhibition at 0.032 µg/mL stood at 0% in experiment [2] (144 h, Day 6, 0.032 μg/ml); 0% in experiment [2] (288 h, Day 12, 0.032 μg/ml); 0% in experiment [2] (432 h, Day 18, 0.032 μg/ml). Further, the inhibition at 0.16 µg/mL turned out to be 0% in experiment [2] (144 h, Day 6, 0.16 μg/ml); 0% in experiment [2] (288 h, Day 12, 0.16 μg/ml); 0% in experiment [2] (432 h, Day 18, 0.16 μg/ml). Further, the inhibition at 0.8 µg/mL stood at 0% in experiment [2] (144 h, Day 6, 0.8 μg/ml); 40% in experiment [2] (288 h, Day 12, 0.8 μg/ml); 0% in experiment [2] (432 h, Day 18, 0.8 μg/ml). The inhibition at 20 µg/mL in experiment [2] (144 h, Day 6, 20 μg/ml) is 72%; in experiment [2] (288 h, Day 12, 20 μg/ml), 91%; in experiment [2] (432 h, Day 18, 20 μg/ml), 78%. In addition, the “suppression of HIV-1 replication in fresh monocytes (in words)” value in experiment [2] (suksdorfin at 20 and 4 μg/ml, AZT positive control) was “did suppress HIV-1 replication in fresh monocytes”.
